In ChEMBL document CHEMBL1201862, “PubChem BioAssay data set” (2004):
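Five concentrations, 48 hours, 96-well plates. At the GI50, growth is halved.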 Calls of active or inactive are those of the source. Cut-off read from the data, not from the text of the source: active = GI50 up to about 1.1 µM and inactive = higher.

Assays:
Assay in all cases: growth of human tumour cells (NCI), 48 h
786-0 = system: 786-0
UACC-62 = system: UACC-62
MOLT-4 = system: MOLT-4
OVCAR-4 = system: OVCAR-4
SW-620 = system: SW-620
A498 = system: A498
OVCAR-8 = system: OVCAR-8
A549 = system: A549
TK-10 = system: TK-10
HOP-62 = system: HOP-62
OVCAR-3 = system: OVCAR-3
NCI-H23 = system: NCI-H23
CCRF-CEM = system: CCRF-CEM
UACC-257 = system: UACC-257
COLO 205 = system: COLO 205
SN12C = system: SN12C
RXF 393 = system: RXF 393

Measured: GI50

COc1ccc2[nH]c3c(O)nncc3c2c1
inactive: 786-0 90.8 µM | UACC-62 53.2 µM | MOLT-4 > 100 µM | OVCAR-4 > 100 µM | SW-620 > 100 µM | A498 > 100 µM | OVCAR-8 > 100 µM | A549 > 100 µM | TK-10 > 100 µM | HOP-62 > 100 µM | OVCAR-3 > 100 µM | NCI-H23 > 100 µM | CCRF-CEM > 100 µM | UACC-257 > 100 µM | COLO 205 > 100 µM

Cc1ccccc1NC(=O)CC(=O)n1nc(-c2ccccc2)c(/N=N/c2ccc([N+](=O)[O-])cc2)c1-c1ccccc1
inactive: SN12C 22.1 µM | 786-0 22.1 µM | UACC-62 13.1 µM | MOLT-4 16.1 µM | OVCAR-4 23.6 µM | SW-620 30.5 µM | RXF 393 19.1 µM | OVCAR-8 31.4 µM | A549 16.1 µM | TK-10 37.1 µM | HOP-62 16 µM | OVCAR-3 15.7 µM | NCI-H23 21.3 µM | CCRF-CEM 28.4 µM | UACC-257 19.9 µM | COLO 205 16.8 µM

[N-]=[N+]=NC(c1cn(C2CC(O)C(CO)O2)c(=O)[nH]c1=O)C(Cl)Br (stereo not drawn)
inactive: SN12C > 100 µM | 786-0 > 100 µM | MOLT-4 > 100 µM | SW-620 > 100 µM | RXF 393 > 100 µM | OVCAR-8 > 100 µM | A549 > 100 µM | TK-10 > 100 µM | NCI-H23 > 100 µM | CCRF-CEM 50.8 µM | COLO 205 > 100 µM

COC(=O)C(=O)C(CC(=O)Nc1ccc(C)cc1)C(=O)OC (stereo not drawn)
inactive: SN12C > 100 µM | 786-0 > 100 µM | UACC-62 > 100 µM | MOLT-4 > 100 µM | OVCAR-4 > 100 µM | SW-620 > 100 µM | RXF 393 > 100 µM | OVCAR-8 > 100 µM | A549 > 100 µM | TK-10 > 100 µM | HOP-62 > 100 µM | OVCAR-3 > 100 µM | NCI-H23 > 100 µM | CCRF-CEM > 100 µM | UACC-257 > 100 µM

Clc1ccc(C2=NOC3C4CCC(C4)C23)cc1 (stereo not drawn)
inactive: SN12C > 100 µM | 786-0 > 100 µM | UACC-62 > 100 µM | MOLT-4 59.4 µM | OVCAR-4 > 100 µM | SW-620 > 100 µM | A498 > 100 µM | OVCAR-8 > 100 µM | A549 > 100 µM | TK-10 > 100 µM | HOP-62 > 100 µM | OVCAR-3 > 100 µM | NCI-H23 > 100 µM | CCRF-CEM > 100 µM | UACC-257 > 100 µM | COLO 205 > 100 µM

NC(Cc1ccccc1)C(=O)OCN1C(=O)C2C3C=CC(C2C1=O)C1C2C(=O)N(COC(=O)C(N)Cc4ccccc4)C(=O)C2C31 (stereo not drawn)
inactive: SN12C 20.8 µM | 786-0 20.7 µM | UACC-62 20.7 µM | OVCAR-4 23.3 µM | SW-620 23.3 µM | RXF 393 22.1 µM | OVCAR-8 20.2 µM | A549 23.2 µM | TK-10 39.2 µM | OVCAR-3 28.4 µM | NCI-H23 19.9 µM | CCRF-CEM 22.8 µM | UACC-257 23.2 µM | COLO 205 17.9 µM

CCCO/S(=N\S(=O)(=O)c1ccccc1)c1ccccc1[N+](=O)[O-] (stereo not drawn)
inactive: SN12C > 100 µM | 786-0 > 100 µM | UACC-62 > 100 µM | MOLT-4 > 100 µM | OVCAR-4 > 100 µM | SW-620 > 100 µM | OVCAR-8 > 100 µM | A549 > 100 µM | HOP-62 > 100 µM | OVCAR-3 > 100 µM | NCI-H23 > 100 µM | CCRF-CEM > 100 µM | UACC-257 > 100 µM | COLO 205 > 100 µM

COC(=O)c1ccccc1NC(=O)C(=O)NNC(=O)c1ccncc1
inactive: SN12C > 100 µM | 786-0 > 100 µM | UACC-62 > 100 µM | MOLT-4 > 100 µM | OVCAR-4 > 100 µM | SW-620 > 100 µM | RXF 393 > 100 µM | OVCAR-8 > 100 µM | A549 > 100 µM | TK-10 > 100 µM | HOP-62 > 100 µM | OVCAR-3 > 100 µM | NCI-H23 > 100 µM | CCRF-CEM > 100 µM | UACC-257 > 100 µM | COLO 205 > 100 µM

CC(C)(C)c1cc(CCC(=O)Nc2ccc(Cl)cc2)nc(S)n1
inactive: SN12C > 100 µM | 786-0 > 100 µM | UACC-62 > 100 µM | MOLT-4 > 100 µM | OVCAR-4 > 100 µM | SW-620 > 100 µM | RXF 393 > 100 µM | OVCAR-8 > 100 µM | A549 > 100 µM | TK-10 > 100 µM | HOP-62 > 100 µM | OVCAR-3 > 100 µM | NCI-H23 > 100 µM | CCRF-CEM > 100 µM | UACC-257 > 100 µM | COLO 205 > 100 µM

COP1(=O)CC2C(Cl)(Cl)C2(C)C1 (stereo not drawn)
inactive: SN12C > 100 µM | 786-0 > 100 µM | UACC-62 > 100 µM | MOLT-4 > 100 µM | OVCAR-4 > 100 µM | SW-620 > 100 µM | RXF 393 > 100 µM | OVCAR-8 > 100 µM | A549 > 100 µM | TK-10 > 100 µM | HOP-62 > 100 µM | OVCAR-3 > 100 µM | NCI-H23 > 100 µM | CCRF-CEM > 100 µM | COLO 205 > 100 µM

O/N=C1/CCCC/C1=C\c1ccc(Cl)c(Cl)c1
inactive: SN12C 18.4 µM | 786-0 29.9 µM | UACC-62 29.7 µM | MOLT-4 15.2 µM | OVCAR-4 21.5 µM | SW-620 46.6 µM | A498 29.6 µM | OVCAR-8 33.7 µM | A549 30.1 µM | TK-10 34.8 µM | HOP-62 49 µM | OVCAR-3 21.8 µM | NCI-H23 28.8 µM | CCRF-CEM 18.9 µM | COLO 205 19.7 µM

Brc1ccc(/N=c2/nc3ccccn3n3nc(-c4ccccc4)cc23)cc1
inactive: SN12C 81.8 µM | 786-0 19.9 µM | UACC-62 15.1 µM | MOLT-4 > 100 µM | OVCAR-4 5.89 µM | SW-620 63.2 µM | RXF 393 14.9 µM | OVCAR-8 28.3 µM | A549 56.5 µM | TK-10 29.8 µM | HOP-62 15 µM | OVCAR-3 22.1 µM | NCI-H23 55.3 µM | CCRF-CEM > 100 µM | UACC-257 48.4 µM | COLO 205 > 100 µM

CC(C)c1ccc2c(c1)CCC1C(C)(C)[C@@H](O)CC[C@]21C (stereo partly drawn)
inactive: SN12C 20.9 µM | 786-0 22.5 µM | UACC-62 42.3 µM | MOLT-4 22.1 µM | OVCAR-4 56.8 µM | RXF 393 21.1 µM | OVCAR-8 36.4 µM | A549 30.6 µM | TK-10 54 µM | HOP-62 19.3 µM | OVCAR-3 34 µM | NCI-H23 29.8 µM | CCRF-CEM 27.9 µM | COLO 205 18.6 µM
